# Active and inactive are the calls of the source. The rule behind the calls is not given here. Starred links: 1 amine or outer side, 2 acyl side, 3 side chain; linkers in the order of their positions; H or OH if unused. Residues, ends and D or L forms follow the SMILES beside them. Groups on a side chain read outwards from the residue. *: point of attachment. Suc = O=C(CCC(=O)[*:2])[*:1]; CO = O=C([*:1])[*:2]; NH(CH2)3NH2 = NCCCN*
# What was measured:
# [1] = Stability in human plasma assessed as intact peptide measured after 30 mins at 37 degC by RP-HPLC analysis; type: ADME, cell-free; settings: read-out: Stability
# [2] = Stability in human plasma assessed as intact peptide measured after 1 hr at 37 degC by RP-HPLC analysis; type: ADME, cell-free; settings: read-out: Stability
# [3] = Stability in human plasma assessed as intact peptide measured after 2 hr at 37 degC by RP-HPLC analysis; type: ADME, cell-free; settings: read-out: Stability
# [4] = Stability in human plasma assessed as intact peptide measured after 6 hr at 37 degC by RP-HPLC analysis; type: ADME, cell-free; settings: read-out: Stability
# [5] = Stability in human plasma assessed as half life at 37 degC by RP-HPLC analysis; type: ADME, cell-free
# [6] = biological target: T1, Neuropeptide Y receptor type 4 (Homo sapiens, UniProt P50391); test: Displacement of [3H]UR-KK200 from human neuropeptide Y Y4 receptor expressed in CHO-mtAEQ cells co-expressing Gqi5 measured after 90 mins by scintillation counting analysis; type: cell-based
# [7] = biological target: T1, Neuropeptide Y receptor type 4; test: Displacement of [3H]UR-KK200 from human neuropeptide Y Y4 receptor expressed in CHO-mtAEQ cells co-expressing Gqi5 assessed as fold change in affinity measured after 90 mins by scintillation counting analysis relative to Ac-Arg-Tyr-Arg-Leu-Arg-Tyr-NH2; type: cell-based; settings: filed as agonist
# [8] = biological target: T2, Neuropeptide Y receptor type 1 (Homo sapiens, UniProt P25929); test: Displacement of [3H]UR-MK299 from human neuropeptide Y Y1 receptor in human SK-N-MC cells measured after 90 mins by scintillation counting analysis; type: cell-based
# T2 sequence (P25929 whole entry): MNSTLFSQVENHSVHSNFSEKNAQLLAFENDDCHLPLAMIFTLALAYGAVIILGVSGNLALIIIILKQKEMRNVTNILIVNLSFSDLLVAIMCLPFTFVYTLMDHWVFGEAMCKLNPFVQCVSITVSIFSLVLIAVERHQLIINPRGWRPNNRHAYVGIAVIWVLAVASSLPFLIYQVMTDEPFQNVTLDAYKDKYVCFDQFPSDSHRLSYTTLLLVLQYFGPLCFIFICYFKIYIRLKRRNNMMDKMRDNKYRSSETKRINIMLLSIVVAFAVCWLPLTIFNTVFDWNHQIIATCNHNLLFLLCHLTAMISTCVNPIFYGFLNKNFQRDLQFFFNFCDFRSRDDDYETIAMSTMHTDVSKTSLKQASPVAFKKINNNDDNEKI
# [9] = biological target: T3, Neuropeptide Y receptor type 2 (Homo sapiens, UniProt P49146); test: Displacement of [3H]UR-MK299 from human neuropeptide Y Y2 receptor expressed in CHO cells measured after 90 mins by scintillation counting analysis; type: cell-based
# T3 sequence (P49146 whole entry): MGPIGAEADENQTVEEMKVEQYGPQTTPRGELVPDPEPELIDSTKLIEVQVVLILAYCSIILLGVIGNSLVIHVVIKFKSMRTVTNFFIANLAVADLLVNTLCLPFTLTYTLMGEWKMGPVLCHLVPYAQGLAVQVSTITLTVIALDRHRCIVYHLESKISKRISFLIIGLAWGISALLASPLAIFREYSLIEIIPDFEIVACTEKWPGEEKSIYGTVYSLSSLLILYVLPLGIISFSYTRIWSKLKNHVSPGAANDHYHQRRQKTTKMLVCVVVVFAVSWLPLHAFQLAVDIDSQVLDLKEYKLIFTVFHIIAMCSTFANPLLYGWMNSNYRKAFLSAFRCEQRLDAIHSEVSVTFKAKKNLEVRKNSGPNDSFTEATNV
# [10] = biological target: T4, Neuropeptide Y receptor type 5 (Homo sapiens, UniProt Q15761); test: Displacement of [3H]propionyl-pNPY from human neuropeptide Y Y5 receptor in human HEC-1B cells measured after 90 mins by scintillation counting analysis; type: cell-based, HEC-1B cell line
# T4 sequence (Q15761 whole entry): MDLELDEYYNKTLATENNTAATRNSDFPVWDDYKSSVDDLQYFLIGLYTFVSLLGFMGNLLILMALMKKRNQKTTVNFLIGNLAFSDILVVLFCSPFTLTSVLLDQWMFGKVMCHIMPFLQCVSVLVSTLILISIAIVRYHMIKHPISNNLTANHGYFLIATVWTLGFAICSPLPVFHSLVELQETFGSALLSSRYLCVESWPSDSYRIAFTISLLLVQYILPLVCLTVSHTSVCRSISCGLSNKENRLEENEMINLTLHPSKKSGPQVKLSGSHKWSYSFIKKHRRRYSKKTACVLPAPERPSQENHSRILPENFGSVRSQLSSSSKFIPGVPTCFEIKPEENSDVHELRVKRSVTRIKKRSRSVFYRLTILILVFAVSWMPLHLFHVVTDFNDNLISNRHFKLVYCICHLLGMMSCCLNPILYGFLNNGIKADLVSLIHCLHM
# Homo sapiens [11] = species: Homo sapiens; test: Selectivity ratio, Ki for displacement of [3H]UR-MK299 from human neuropeptide Y Y1 receptor in human SK-N-MC cells measured after 90 mins by scintillation counting analysis to Ki for displacement of [3H]UR-KK200 from human neuropeptide Y Y4 receptor expressed in CHO-mtAEQ cells co-expressing Gqi5 measured after 90 mins by scintillation counting analysis; type: cell-based
# Homo sapiens [12] = species: Homo sapiens; test: Selectivity ratio, Ki for displacement of [3H]UR-MK299 from human neuropeptide Y Y2 receptor expressed in CHO cells measured after 90 mins by scintillation counting analysis to Ki for displacement of [3H]UR-KK200 from human neuropeptide Y Y4 receptor expressed in CHO-mtAEQ cells co-expressing Gqi5 measured after 90 mins by scintillation counting analysis; type: cell-based
# Homo sapiens [13] = species: Homo sapiens; test: Selectivity ratio, Ki for displacement of [3H]propionyl-pNPY from human neuropeptide Y Y5 receptor in human HEC-1B cells measured after 90 mins by scintillation counting analysis to Ki for displacement of [3H]UR-KK200 from human neuropeptide Y Y4 receptor expressed in CHO-mtAEQ cells co-expressing Gqi5 measured after 90 mins by scintillation counting analysis; type: cell-based
# [14] = biological target: T1, Neuropeptide Y receptor type 4; test: Agonist activity at human neuropeptide Y Y4 receptor expressed in HEK293T-ARRB1 cells assessed as stimulation of beta-arrestin 1 recruitment by multimode plate reader; type: functional, cell-based
# [15] = biological target: T1, Neuropeptide Y receptor type 4; test: Intrinsic activity at human neuropeptide Y Y4 receptor expressed in HEK293T-ARRB1 cells assessed as stimulation of beta-arrestin 1 recruitment by multimode plate reader relative to hPP; type: functional, cell-based
# [16] = biological target: T1, Neuropeptide Y receptor type 4; test: Agonist activity at human neuropeptide Y Y4 receptor expressed in HEK293T-ARRB2 cells assessed as stimulation of beta-arrestin 2 recruitment by multimode plate reader; type: functional, cell-based
# [17] = biological target: T1, Neuropeptide Y receptor type 4; test: Intrinsic activity at human neuropeptide Y Y4 receptor expressed in HEK293T-ARRB2 cells assessed as stimulation of beta-arrestin 2 recruitment by multimode plate reader relative to hPP; type: functional, cell-based
# [18] = biological target: T1, Neuropeptide Y receptor type 4; test: Agonist activity at human neuropeptide Y Y4 receptor expressed in CHO-mtAEQ cells co-expressing Gqi5 by calcium aequorin assay; type: functional, cell-based
# [19] = biological target: T1, Neuropeptide Y receptor type 4; test: Intrinsic activity at human neuropeptide Y Y4 receptor expressed in CHO-mtAEQ cells co-expressing Gqi5 by calcium aequorin assay; type: functional, cell-based
# T1 sequence (P50391 whole entry): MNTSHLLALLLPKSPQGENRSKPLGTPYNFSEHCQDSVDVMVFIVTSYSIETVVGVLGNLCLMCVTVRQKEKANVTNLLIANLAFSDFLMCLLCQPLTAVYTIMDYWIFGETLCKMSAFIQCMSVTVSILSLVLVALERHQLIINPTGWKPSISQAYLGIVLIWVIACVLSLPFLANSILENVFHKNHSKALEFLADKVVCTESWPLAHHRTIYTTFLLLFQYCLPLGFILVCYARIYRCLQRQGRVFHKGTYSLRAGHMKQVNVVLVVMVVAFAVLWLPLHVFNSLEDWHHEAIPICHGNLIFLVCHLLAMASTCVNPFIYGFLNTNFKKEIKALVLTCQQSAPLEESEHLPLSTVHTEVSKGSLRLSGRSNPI
SMILES,Ki ([6]; read-out: Ki),Ki ([6]; read-out: pKi (converted)),fold change (FC) [7],Ki ([8]; read-out: pKi (converted)),Ki ([9]; read-out: Ki),Ki ([9]; read-out: pKi (converted)),Ki ([10]; read-out: Ki),Ki ([10]; read-out: pKi (converted)),Selectivity ratio (Homo sapiens [11]),Selectivity ratio (Homo sapiens [12]),Selectivity ratio (Homo sapiens [13]),EC50 ([14]; read-out: EC50),Intrinsic activity [15],EC50 [16],Intrinsic activity [17],EC50 [18],Intrinsic activity [19],Ki ([8]; read-out: Ki),other results
CC(=O)N[C@@H](CCCNC(=N)N)C(=O)N[C@@H](Cc1ccc(O)cc1)C(=O)N[C@@H](CCCN/C(N)=N/C(=O)NCCCCN)C(=O)N[C@@H](CC(C)C)C(=O)N[C@@H](CCCNC(=N)N)C(=O)N[C@@H](Cc1ccc(O)cc1)C(N)=O (HELM PEPTIDE1{[ac].R.Y.[NCCCCNC(=O)/N=C(\N)NCCC[C@H](N[*:1])C(=O)[*:2]].L.R.Y.[am]}$$$$V2.0),,,,,,,,,,,,,,,,,,,remaining at 0.5 h [1]: > 99%; remaining at 1 h [2]: 77%; remaining at 2 h [3]: 38%; remaining at 6 h [4]: 9%; half-life [5]: 102 min
CC(C)C[C@H](NC(=O)[C@@H]1CCCNC(=N)NC(=O)NCCCNC(=O)CCC(=O)N[C@@H](CCCNC(=N)N)C(=O)N[C@@H](Cc2ccc(O)cc2)C(=O)N1)C(=O)N[C@@H](CCCNC(=N)N)C(=O)N[C@@H](Cc1ccc(O)cc1)C(N)=O,0.13 nM,0.117 nM,26,> 10 µM,> 3 µM,> 3.16 µM,> 3 µM,> 1 µM,> 76000,> 23000,> 23000,3.5 nM,90%,5.37 nM,87%,15.1 nM,83%,,
"CC(C)C[C@H](NC(=O)[C@H](CCCNC(=N)N)NC(=O)[C@@H]1CCC(=O)N[C@@H](CCCNC(=N)N)C(=O)NCC(=O)N[C@@H](Cc2ccc(O)cc2)C(=O)N1)C(=O)N[C@@H](CCCNC(=N)N)C(=O)N[C@@H](Cc1ccc(O)cc1)C(N)=O (HELM PEPTIDE1{R.G.Y.E.R.L.R.Y.[am]}$PEPTIDE1,PEPTIDE1,1:R1-4:R3$$$V2.0)",2.5 nM,,1.4,0.457 µM,> 10 µM,> 10 µM,> 3 µM,> 3.16 µM,300,> 4000,> 1200,290 nM,64%,178 nM,74%,676 nM,48%,0.76 µM,
"CC(C)C[C@H](NC(=O)[C@@H]1CCCNC(=N)NC(=O)NCCCCNC(=O)CCC(=O)N[C@@H](CCCNC(=N)N)C(=O)N1)C(=O)N[C@@H](CCCNC(=N)N)C(=O)N[C@@H](Cc1ccc(O)cc1)C(N)=O (HELM PEPTIDE1{R.[N=C(NCCC[C@H](N[*:1])C(=O)[*:2])N[*:3]].L.R.Y.[am]}|CHEM1{[O=C(CCC(=O)[*:1])NCCCCNC(=O)[*:2]]}$PEPTIDE1,CHEM1,1:R1-1:R1|PEPTIDE1,CHEM1,2:R3-1:R2$$$V2.0)",1.4 nM,,2.4,> 3.16 µM,> 3 µM,> 3.16 µM,> 10 µM,> 1000 µM,> 2100,> 2100,> 7100,180 nM,87%,93.3 nM,83%,363 nM,61%,> 3 µM,
CC(C)C[C@H](NC(=O)[C@H](CCCNC(=N)NC(=O)NCCCN)NC(=O)[C@H](Cc1ccc(O)cc1)NC(=O)[C@H](CCCNC(=N)N)NC(=O)CCC(=O)O)C(=O)N[C@@H](CCCNC(=N)N)C(=O)N[C@@H](Cc1ccc(O)cc1)C(N)=O,0.66 nM,0.646 nM,5.2,> 10 µM,> 10 µM,> 10 µM,,> 10 µM,> 15000,> 15000,> 15000,50 nM,61%,129 nM,71%,178 nM,65%,,"Ki ([10]; hec-1b cell line, read-out: Ki): > 10 µM"
N=C(N)NCCC[C@H](NC(=O)CCC(=O)O)C(=O)N[C@@H](Cc1ccc(O)cc1)C(=O)N[C@@H](CCCNC(=N)NC(=O)NCCCN)C(=O)N[C@@H](Cc1c[nH]c2ccccc12)C(=O)N[C@@H](CCCNC(=N)N)C(=O)N[C@@H](Cc1ccc(O)cc1)C(N)=O (Suc-RYR([CO-NH(CH2)3NH2])WRY-NH2),63 nM,56.2 nM,-19,> 10 µM,> 3 µM,> 3.16 µM,> 3 µM,> 3.16 µM,> 150,> 47,> 47,,inactive,89.1 nM,inactive,91.2 nM,inactive,,EC50 ([14]; read-out: pEC50 (converted)): 123 nM
